{"source": "patent US5928868A", "about": "“Three hybrid screening assay” (Massachusetts Institute of Technology, priority 1997, dated 1999)", "key": {"[1]": {"target": "T1, Gal 4 activation domain-human FKBP12 and Gal4 DNA binding domain-hormone binding domain of rat glucocorticoid receptor (UniProt P06536+P62942, C656G/F620S)", "T1 sequence (P62942 2-108)": "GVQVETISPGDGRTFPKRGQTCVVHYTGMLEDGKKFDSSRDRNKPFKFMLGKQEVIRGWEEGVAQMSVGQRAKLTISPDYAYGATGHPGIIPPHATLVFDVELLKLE", "T1 sequence (P06536 497-795 F620S/C656G)": "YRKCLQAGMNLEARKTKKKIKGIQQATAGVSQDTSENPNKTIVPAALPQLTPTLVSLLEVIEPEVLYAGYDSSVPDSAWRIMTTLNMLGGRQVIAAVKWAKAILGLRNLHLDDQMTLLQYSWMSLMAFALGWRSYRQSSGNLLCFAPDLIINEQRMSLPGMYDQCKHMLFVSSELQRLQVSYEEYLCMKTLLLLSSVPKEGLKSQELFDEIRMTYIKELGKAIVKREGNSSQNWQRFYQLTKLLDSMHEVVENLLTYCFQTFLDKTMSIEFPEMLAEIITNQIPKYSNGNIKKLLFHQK", "assay_type": "cell-based, yeast strain Y190", "conditions": "FK506 1 to 10 μM with 1 μM dexamethasone-FK506, 30° C., 12-16 hours", "experimental": "The above yeast system has both a His- biosynthetic gene and a LacZ reporter gene as reporters for detection of three-hybrid interactions. We performed liquid β-galactosidase assay as follows. […] The culture were shaken vigorously at 30° C. for 12-16 hours. The yeast were harvested and the amount of β-galactosidase activity were quantified using established procedure (Current Protocol in Molecular Biology, Chapt. 13). […] This system is applied for screening a cDNA library to identify FKBPs that binds to FK506. The screening procedures are identical to those employed in Example 1."}, "[2]": {"target": "T1, Gal 4 activation domain-human FKBP12 and Gal4 DNA binding domain-hormone binding domain of rat glucocorticoid receptor", "conditions": "10 μM FK506 with 1 μM dexamethasone-FK506, 30 mM 3-aminotriazole, three days", "procedure": "A three-hybrid assay using a second Gal4 DNA binding domain and activation domain as described by Fields et al. (U.S. Pat. No. 5,468,614) and by Durfee et al. (1993) Genes and Development vol 7, pg 555-569 was evaluated. The hormone binding domain of rat glucocorticoid receptor (residues 497-795) containing either a single or double mutations (C656G and F620S) was PCR amplified using primers tagged with restriction sites and subcloned into the vector pASII to encode a fusion protein between the Gal4 DNA binding domain and the hormone binding domain of rat glucocorticoid receptor to give a plasmid pASHBD. The coding sequence of human FKBP12 was PCR amplified and subcloned into the vector pACTII to include a fusion protein between Gal 4 activation domain and human FKBP12. The resultant vector is called pACTFKBP. The vectors pASHBD and pACTFKBP were transformed into the yeast strain Y190 using lithium acetate method and the transformed yeast were selected on SC (Leu^-, Trp^-)."}, "[3]": {"tested_on": "FK506 binding proteins (FKBP)", "conditions": "cited from earlier work"}, "[4]": {"target": "transcriptional activator-FKBP12 and Lex A DNA Binding Domain-Hormone Binding Domain of the Rat Glucocorticoid Receptor (UniProt P06536+P62942, C656G/F620S)", "sequence (P62942 2-108)": "as the sequence (P62942 2-108) above", "sequence (P06536 497-795 F620S/C656G)": "as the sequence (P06536 497-795 F620S/C656G) above", "assay": "Yeast three hybrid screen, Lex A system (EGY48; lacZ and leu 2 reporters)", "assay_type": "cell-based, Saccharomyces cerevisiae (EGY 48)", "conditions": "2% galactose", "excerpt": "A first vector containing the cDNA fragment encoding FKBP 12-transcriptional module was formed as follows. The cDNA encoding FKBP 12 was originally obtained from a human cDNA library prepared according to well known techniques (Current Protocols in Molecular Biology). The cDNA encoding the FKBP12 was amplified by PCR and subcloned into the EcoRI and XhoI sites of the pJG4-5 vector where the pJG4-5 vector already contains the transcriptional activator module. (Current Protocols in Molecular Biology). The resulting vector is called pJGFKBP.\nA second vector encoding the hormone binding domain of rat glucocorticoid receptor (FIG. 4) and the Lex A binding protein was made as follows: A clone containing the full length rat glucocorticoid receptor with the C656G mutation was obtained according to Chakrabati et al. Journal of Biological Chemistry, (1991) vol 266, pp22075-22078. A fragment encoding amino acid residues 497-795 of the protein with the F620S mutation was generated by a standard two-step PCR reaction routinely used for the creation of point mutations. This fragment was flanked by restriction sites for MfeI and XhoI, and was subcloned into the EcoRI and XhoI sites of the pEG202 vector (Current Protocols in Molecular Biology) where the pEG202 vector contains the sequence which encodes for a protein which binds the bacterial Lex A operator. The resulting hybrid construct, designated pEGHDP encodes the second hybrid protein in the assay.\nA third vector identified as pSH18-34 and containing the lacZ reporter gene downstream of a number of Lex A operators was made following standard techniques. (Current Protocols in Molecular Biology).\nSaccharomyces cerevisiae (EGY 48) [Current Protocols on Molecular Biology], was transformed with the three vectors described above using standard lithium acetate transformation procedures. Positive transformants were selected by plating cells on complete minimal media yeast dropout plates containing 2% glucose, and lacking histidine, tryptophan and uracil. The transformed EGY48 yeast were then screened as described below.\n(FIG. 6). […] This experiment was also performed on similar plates which were also leu^-. The leu 2 gene is used in EGY48 as a second reporter gene. Only yeast that grow in the absence of leucine contain a trimeric complex. These yeast grew well, with isolated colonies clearly visible at two days. Two control experiments were conducted by plating the transformed EGY48 strain onto complete minimal media Ura^-, His^-, Trp^- yeast dropout plates as in the aforementioned cases except the plates contained 2% glucose instead of 2% galactose. In the absence of galactose, the hybrid transcriptional activator-FKBP12 protein was not expressed since the gene encoding it is under the Gal1 promoter. […]"}, "glucocorticoid receptor": {"tested_on": "glucocorticoid receptor", "conditions": "cited from earlier work"}, "[5]": {"tested_on": "Jurkat cDNA library subcloned into pJG4-5", "conditions": "1 μM dexamethasone-FK506; growth inhibited by 10 μM FK506", "experimental": "The yeast strain: EGY48 ura3 trp1 his3 Lex A operator-LEU 2; was transformed with pEGHDP and PSH18-34 and plated onto synthetic complete (SC) medium (His^-, Ura^-). The resultant EGY48 harboring pEGHBD and pSH18-34 was transformed with a Jurkat cDNA library subcloned into pJG4-5. […] Colonies were collected between days four and ten. All colonies were plated onto SC medium (His^-, Ura^-, Trp^-, Leu^-) containing galactose."}}}
{"molecule": "C=CC[C@@H]1/C=C(\\C)C[C@H](C)C[C@H](OC)[C@H]2O[C@@](O)(C(=O)C(=O)N3CCCC[C@H]3C(=O)O[C@H](/C(C)=C/[C@@H]3CC[C@@H](O)[C@H](OC)C3)[C@H](C)[C@@H](O)CC1=O)[C@H](C)C[C@@H]2OC", "note": "[FK506]", "values": [{"measurement": "β-galactosidase activity in competition with hybrid ligand", "setting": "[1]", "result": "decrease in a FK506 dose-dependent manner"}, {"measurement": "yeast colonies on selective plates in competition with hybrid ligand", "setting": "[2]", "result": "absent"}, {"measurement": "binding affinity to FKBPs when linked through the effector domain", "setting": "[3]; FK506 linked through the effector domain", "result": "low nanomolar binding affinity"}, {"measurement": "binding affinities for FKBPs", "setting": "[3]; free FK506", "result": "in the nanomolar range"}, {"measurement": "competitive inhibition of trimeric complex formation / Lac Z activation (yeast color)", "setting": "[4]; 10 μM FK506 with 1 μM dexamethasone-FK506 hybrid ligand", "result": "all of the yeast remained white"}]}
{"molecule": "C[C@@H]1C[C@H]2[C@@H]3CCC4=CC(=O)C=C[C@]4(C)[C@@]3(F)[C@@H](O)C[C@]2(C)[C@@]1(O)C(=O)CO", "note": "[dexamethasone]", "values": [{"measurement": "affinity for the glucocorticoid receptor", "setting": "glucocorticoid receptor", "result": "high affinity"}]}
{"molecule": "dexamethasone-FK506", "values": [{"measurement": "protein encoded by cDNA clones isolated with the hybrid ligand", "setting": "[5]", "result": "found to encode human FKBP12"}, {"measurement": "reporter gene activation (Lac Z, blue color on X-Gal)", "setting": "[4]; 1 μM hybrid ligand, Ura-, His-, Trp- plates with X-Gal", "result": "the yeast were blue at three days"}, {"measurement": "time at which light blue color signifying reporter gene activation began to arise", "setting": "[4]; 1 μM hybrid ligand, X-Gal plates", "result": "approximately 36 hours"}, {"measurement": "growth in the absence of leucine (leu 2 reporter gene)", "setting": "[4]; 1 μM hybrid ligand, leu- plates", "result": "grew well"}]}
